# According to patent publication US6613317B1, “Volatile attractants for diabrotica species” (priority 1988, dated 2003):
# Marks after values point to notes of the source that are not given here.
# How the values were obtained:
# [1] = system: northern corn rootworm (NCR); assay: Sticky trap attraction in corn, phenylethanol analogues (Example 6); format: in vivo, Diabrotica barberi; details: for Mean number of NCR per trap (± standard deviation) / Mean number (control subtracted) of NCR per trap: four replicates; for Mean number of NCR per trap (± standard deviation): 24 hour
# Experimental: (§1) Test chemicals (purchased from Aldrich Chemical Co.; Milwaukee, Wis.) were applied by capillary micropipettes to cotton dental wicks that were attached to tops of 1.0 liter cylindrical paper cartons covered with TangleTrap™, Grand Rapids, Mich. The trapping techniques used were as previously described in Example 1. Unless otherwise indicated, all treatments were made at a dosage of 100 mg or 100 μL of attractant per trap. Control traps had untreated wicks. Four replicates of treated and untreated traps were positioned randomly 10 meters apart on top of 1 m high posts along the edges of 25-50 ha. fields of hybrid corn (Zea mays), infested with adult NCR, SCR, and WCR beetles. Several experiments detailed in the Tables were made in a 0.4 ha plot of sweet corn (Illini X-tra Sweet).
# (§2) Attraction of Diabrotica species adults of the sticky traps was measured by the mean number of beetles caught after 1 day (ca. 24 hours) exposure. The significance of the treatments was determined by analysis of variance and the individual means were separated by Duncan's multiple range test (Statistical Package for the Social Sciences, Nie, et al., 2nd. ed. McGraw-Hill, New York (1975). The data was logarithmically transformed for statistical analysis. Means and standard deviations are presented for the untransformed data. Significance levels were set at P=0.05 for all statistical analyses.
# [2] = system: western corn rootworm (WCR); assay: as above; format: in vivo, Diabrotica virgifera virgifera; details: 100 mg per trap, four replicates, 24 hour; for Mean number of WCR per trap (± standard deviation), column WCW: Table 17
# Experimental: as §1, §2
# [3] = system: western corn rootworm (WCR) adults; assay: Sticky trap attraction in corn, estragole analogues (Example 3); format: in vivo, Diabrotica virgifera virgifera; details: 100 mg per trap, n = 4
# Experimental: as §1, with “chemicals” for “chemicals (purchased from Aldrich Chemical Co.; Milwaukee, Wis.)”, “Cinnamyl alcohol, 4-methoxycinnamaldehyde, cinnamyl acetate, and 4-(4′methoxyphenyl)-3-butene-2-one which are solids at ambient temperature were prepared as standard w/v solutions in acetone prior to dosing the cotton wicks. All” for “Unless otherwise indicated, all”
# as §2
# [4] = system: southern corn rootworm (SCR) adults; assay: as above; format: in vivo, Diabrotica undecimpunctata howardi; details: 100 mg per trap, n = 4
# Experimental: as §1, with “chemicals” for “chemicals (purchased from Aldrich Chemical Co.; Milwaukee, Wis.)”, “Cinnamyl alcohol, 4-methoxycinnamaldehyde, cinnamyl acetate, and 4-(4′methoxyphenyl)-3-butene-2-one which are solids at ambient temperature were prepared as standard w/v solutions in acetone prior to dosing the cotton wicks. All” for “Unless otherwise indicated, all”
# as §2
# [5] = system: northern corn rootworm (NCR) adults; assay: as above; format: in vivo, Diabrotica barberi; details: 100 mg per trap, n = 4
# Experimental: as §1, with “chemicals” for “chemicals (purchased from Aldrich Chemical Co.; Milwaukee, Wis.)”, “Cinnamyl alcohol, 4-methoxycinnamaldehyde, cinnamyl acetate, and 4-(4′methoxyphenyl)-3-butene-2-one which are solids at ambient temperature were prepared as standard w/v solutions in acetone prior to dosing the cotton wicks. All” for “Unless otherwise indicated, all”
# as §2
# NCR = assay: Limit of response rating of squash blossom volatiles on sticky traps (Example 5); format: in vivo, Diabrotica barberi; details: 24 hour; four replicate traps; 0.01 mg to 200 mg
# Experimental: (§3) Over 40 individual volatile chemicals have been isolated from Cucurbita maxima blossoms and circa 25 of these have been unequivocally identified (Andersen, J. F., J. Agric. Food Chem., 35:60-62 (1987): Andersen, J. F. and Metcalf, R. L., J. Chem. Ecol., 12:687-699 (1986)). The major odor components were evaluated as potential attractants for adult Diabrotica species using cylindrical sticky traps baited with dental cotton wicks (Metcalf, R. L., and Lampman, R. L., Paper submitted to J. Econ. Entomol., (1988)) containing from 0.01 mg to 200 mg of volatile compound.
# SCR = assay: as above; format: in vivo, Diabrotica undecimpunctata howardi; details: 24 hour; four replicate traps; 0.01 mg to 200 mg
# Experimental: as §3
# WCR = assay: as above; format: in vivo, Diabrotica virgifera virgifera; details: 24 hour; four replicate traps; 0.01 mg to 200 mg
# Experimental: as §3
# [6] = day 1 after single 100 mg dosage on cotton wick
# [7] = day 2 after single 100 mg dosage on cotton wick
# [8] = day 3 after single 100 mg dosage on cotton wick
# [9] = day 4 after single 100 mg dosage on cotton wick
# [10] = day 5 after single 100 mg dosage on cotton wick
# [11] = day 6 after single 100 mg dosage on cotton wick
# [12] = day 7 after single 100 mg dosage on cotton wick
# [13] = day 8 after single 100 mg dosage on cotton wick
# [14] = day 11 after single 100 mg dosage on cotton wick
smiles,measurement,setting,value
COc1ccc(CCO)cc1 [4-methoxyphenylethanol],Mean number of NCR per trap (± standard deviation),"[1]; Table 15, 100 mg per trap",187.7 ± 62.5d* per trap
same,Mean number of NCR per trap (± standard deviation),"[1]; Table 16, 100 mg per trap",60.3 ± 26.8b* per trap
same,Mean number of NCR per trap (± standard deviation),"[1]; Table 17, 100 mg per trap",56.7 ± 7.5c per trap
same,lowest level attractive to NCR,[1]; Table 18,≤ 0.1 mg
same,Mean number of NCR per trap (± standard deviation),"[1]; Table 18, 0.1 mg",16.2 ± 1.2b per trap
same,Mean number of NCR per trap (± standard deviation),"[1]; Table 18, 0.3 mg",32.7 ± 9.4c per trap
same,Mean number of NCR per trap (± standard deviation),"[1]; Table 18, 1 mg",41.0 ± 23.4c per trap
same,Mean number of NCR per trap (± standard deviation),"[1]; Table 18, 3 mg",72.0 ± 10.8d per trap
same,Mean number (control subtracted) of NCR per trap,[1]; [6],134.5 per trap
same,Mean number (control subtracted) of NCR per trap,[1]; [7],231.8 per trap
same,Mean number (control subtracted) of NCR per trap,[1]; [8],93.1 per trap
same,Mean number (control subtracted) of NCR per trap,[1]; [9],51.5 per trap
same,Mean number (control subtracted) of NCR per trap,[1]; [10],128.9 per trap
same,Mean number (control subtracted) of NCR per trap,[1]; [11],49.2 per trap
same,Mean number (control subtracted) of NCR per trap,[1]; [12],76.7 per trap
same,Mean number (control subtracted) of NCR per trap,[1]; [13],99.0 per trap
same,Mean number (control subtracted) of NCR per trap,[1]; [14],64.8 per trap
same,Mean number of WCR per trap (±standard deviation),[2]; Table 15,5.7 ± 2.8a per trap
same,Mean number of WCR per trap (±standard deviation),[2]; Table 16,3.5 ± 2.1a per trap
same,"Mean number of WCR per trap (± standard deviation), column WCW",[2],6.0 ± 4.2a per trap
COc1ccc(CCCO)cc1 [4-methoxyphenylpropanol],Mean number of NCR per trap (± standard deviation),"[1]; Table 17, 100 mg per trap",15.5 ± 6.2b per trap
same,"Mean number of WCR per trap (± standard deviation), column WCW",[2],3.2 ± 2.2a per trap
COc1cccc(CCO)c1 [3-methoxyphenylethanol],Mean number of NCR per trap (± standard deviation),"[1]; Table 16, 100 mg per trap",7.2 ± 3.4a per trap
same,Mean number of WCR per trap (±standard deviation),[2]; Table 16,3.7 ± 2.1a per trap
OCCc1ccc(F)cc1 [4-fluorophenylethanol],Mean number of NCR per trap (± standard deviation),"[1]; Table 15, 100 mg per trap",38.0 ± 6.2b per trap
same,Mean number of WCR per trap (±standard deviation),[2]; Table 15,14.0 ± 12.3a per trap
"O=CC=Cc1ccccc1 [XII, cinnamaldehyde]",Mean number of WCR adults per sticky trap (±standard deviation) after 24 hours,[3]; August 4 second year,32.2 ± 8.5^b per sticky trap
same,Mean number of WCR per sticky trap after 24 hours,[3]; August 5 (Table 10),44.5 ± 25.5^d per sticky trap
same,Mean number of WCR adults per sticky trap (±standard deviation) after 24 hours,[3]; August 5 first year,4.0 ± 1.8^b per sticky trap
same,Mean number of WCR (±standard deviation) per sticky trap after 24 hours,[3]; August 7 (Table 11),61.5 ± 15.6^b per sticky trap
same,Mean number of WCR adults per sticky trap (±standard deviation) after 24 hours,[3]; September 11,1.3 ± 1.3^a per sticky trap
same,Mean number of SCR adults per sticky trap (±standard deviation) after 24 hours,[4]; August 4 second year,135.5 ± 29.3^d per sticky trap
same,Mean number of SCR per sticky trap after 24 hours,[4]; August 5 (Table 10),67.5 ± 23.1^d per sticky trap
same,Mean number of SCR adults per sticky trap (±standard deviation) after 24 hours,[4]; August 5 first year,431.2 ± 120.3^d per sticky trap
same,Mean number of SCR (±standard deviation) per sticky trap after 24 hours,[4]; August 7 (Table 11),63.5 ± 25.7^c per sticky trap
same,Mean number of SCR adults per sticky trap (±standard deviation) after 24 hours,[4]; September 11,24.0 ± 10.5^c per sticky trap
same,Mean number of NCR per sticky trap after 24 hours,[5]; August 5 (Table 10),1.2 ± 1.3^a per sticky trap
same,Mean number of NCR (±standard deviation) per sticky trap after 24 hours,[5]; August 7 (Table 11),0.3 ± 0.5^a per sticky trap
same,Attractant Rating NCR (by limit of response),NCR,0 (200)
same,Attractant Rating SCR (by limit of response),SCR,+4 (1-3)
same,Attractant Rating WCR (by limit of response),WCR,+3 (3-10)
same,Mean number of NCR per trap (± standard deviation),"[1]; Table 17, 100 mg per trap",15.5 ± 3.8b per trap
same,"Mean number of WCR per trap (± standard deviation), column WCW",[2],56.0 ± 34.6b per trap
COc1ccccc1CCO [2-methoxyphenylethanol],Mean number of NCR per trap (± standard deviation),"[1]; Table 16, 100 mg per trap",13.5 ± 9.3a per trap
same,Mean number of WCR per trap (±standard deviation),[2]; Table 16,6.0 ± 5.1a per trap
O=[N+]([O-])c1ccc(CCO)cc1 [4-nitrophenylethanol],Mean number of NCR per trap (± standard deviation),"[1]; Table 15, 100 mg per trap",7.7 ± 2.7a per trap
same,Mean number of WCR per trap (±standard deviation),[2]; Table 15,7.9 ± 5.1a per trap
OCCc1ccc(Cl)cc1 [4-chlorophenylethanol],Mean number of NCR per trap (± standard deviation),"[1]; Table 15, 100 mg per trap",30.0 ± 7.4b per trap
same,Mean number of WCR per trap (±standard deviation),[2]; Table 15,13.7 ± 3.9a per trap
OCCCc1ccccc1,Mean number of NCR per trap (± standard deviation),"[1]; Table 17, 100 mg per trap",36.2 ± 12.2c per trap
same,Mean number (control subtracted) of NCR per trap,[1]; [6],76.5 per trap
same,Mean number (control subtracted) of NCR per trap,[1]; [7],115.3 per trap
same,Mean number (control subtracted) of NCR per trap,[1]; [8],38.8 per trap
same,Mean number (control subtracted) of NCR per trap,[1]; [9],25.0 per trap
same,Mean number (control subtracted) of NCR per trap,[1]; [10],41.8 per trap
same,Mean number (control subtracted) of NCR per trap,[1]; [11],10.5 per trap
same,Mean number (control subtracted) of NCR per trap,[1]; [12],10.7 per trap
same,Mean number (control subtracted) of NCR per trap,[1]; [13],29.5 per trap
same,Mean number (control subtracted) of NCR per trap,[1]; [14],4.5 per trap
same,"Mean number of WCR per trap (± standard deviation), column WCW",[2],4.0 ± 2.9a per trap
Cc1ccc(CCO)cc1 [4-methylphenylethanol],Mean number of NCR per trap (± standard deviation),"[1]; Table 15, 100 mg per trap",89.2 ± 7.8c per trap
same,Mean number of WCR per trap (±standard deviation),[2]; Table 15,12.2 ± 5.6a per trap
Nc1ccc(CCO)cc1 [4-aminophenylethanol],Mean number of NCR per trap (± standard deviation),"[1]; Table 15, 100 mg per trap",10.5 ± 2.1a per trap
same,Mean number of WCR per trap (±standard deviation),[2]; Table 15,8.5 ± 3.4a per trap
